Assay results taken from US7112607B2, “Allosteric adenosine receptor modulators” (King Pharmaceuticals Research & Development, Inc., priority 1997, dated 2006).

Molecular target: T1, human recombinant A1 adenosine receptors (Homo sapiens, UniProt P30542)
T1 construct: expressed in transfected cells; host or cells: Chinese hamster ovary (CHO) cells, CHO:huA1, G-418 selected
T1 sequence (P30542 1-326): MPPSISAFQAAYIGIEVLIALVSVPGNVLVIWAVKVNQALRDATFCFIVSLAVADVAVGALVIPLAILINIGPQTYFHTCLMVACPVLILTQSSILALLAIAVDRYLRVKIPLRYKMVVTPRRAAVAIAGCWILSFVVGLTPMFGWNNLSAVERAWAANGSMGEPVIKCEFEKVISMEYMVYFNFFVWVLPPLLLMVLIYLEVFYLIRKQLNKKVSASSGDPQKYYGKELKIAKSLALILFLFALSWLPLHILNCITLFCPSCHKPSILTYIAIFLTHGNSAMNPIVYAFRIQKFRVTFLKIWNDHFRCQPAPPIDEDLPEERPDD
Assay: Allosteric enhancement: reduction of cAMP content of CHO:huA1 cells (radioimmunoassay)
Format: cell-based
Settings: forskolin 1 μM, rolipram 20 μM, CPA 0.01 nM, adenosine deaminase, 6 min at 36° C.; for inhibition at 0.01 µM / inhibition at 0.1 µM / inhibition at 1 µM / inhibition at 10 µM: 0.1 h, read-out: Change in cAMP Content from Control (mean + SEM)
Protocol: Chinese hamster ovary cells expressing human recombinant A1 adenosine receptors (CHO:huA1 cells) at a density of approximately 8000 fmol/mg protein were prepared as previously described (Kollias-Baker et al., (1997), J. Pharmacol. Exp. Ther. 281: 761–768) and aliquots of the cells at low passage numbers were frozen and stored in liquid nitrogen. When compounds were tested, an aliquot of CHO:huA1 cells were rapidly thawed after removal from liquid nitrogen, then grown in Ham's F12 culture medium with 10% fetal bovine serum and 0.5 mg/mL of antibiotic G-418 (Shryock, Ozeck, and Belardinelli (1998), Mol. Pharmacol 53: 886–893). Cells were passaged thrice weekly. Aliquots of cells were placed into 12-well plates with culture medium, serum, and antibiotic for 48 hours, by which time the cells had grown to a confluent monolayer.
Allosteric enhancement was measured as the action of a test compound at different concentrations (0.01, 0.1, 1 and 10 μM) to reduce the cAMP content of CHO:huA1 cells. To initiate an experiment, growth medium was removed from the 12-well plates and cells were washed once with warm Hanks' buffered saline. The wash solution was then removed and replaced with fresh Hanks' solution containing forskolin (1 μM), rolipram (20 μM), N^6-cyclopentyladenosine (CPA, 0.01 nM), adenosine deaminase (2 U/mL), and the test compound. Forskolin was used to stimulate the activity of adenylyl cyclase, rolipram to inhibit cAMP phosphodiesterase, adenosine deaminase to degrade endogenous adenosine, and CPA to cause a small increase of the number of activated adenosine receptors. After 6 min of incubation at 36° C. in the presence of test compound, the incubation solution was removed and hydrochloric acid (final concentration 50 mM) was added to terminate drug action.
The content of cAMP in acidified extracts of cells was determined by radioimmunoassay as previously described (Kollias-Baker et al., (1997), J. Pharmacol. Exp. Ther. 281: 761–768). Because the magnitude of the effects of allosteric enhancers on CHO:huA1 cells changed subtly with passage number and differed slightly among different aliquots of cells, the actions of the test compounds and the action of a reference compound (PD 81,723) were assessed in each experiment. The effect of each test compound on cAMP content is presented in Table 1 as a percentage of the value of cAMP content in the absence of drug (control, 100%). Each value is a mean±standard error of 6 determinations in each of the number of experiments indicated in the “n” column of the table.

inhibition at 0.01 µM (0.01 μM test compound) [%] | inhibition at 0.1 µM (0.1 μM test compound) [%] | inhibition at 1 µM (1 μM test compound) [%] | inhibition at 10 µM (10 μM test compound) [%] | Change in cAMP Content from Control (mean + SEM) (0.01 μM test compound) [%] | Change in cAMP Content from Control (mean + SEM) (0.1 μM test compound) [%] | Change in cAMP Content from Control (mean + SEM) (1 μM test compound) [%] | Change in cAMP Content from Control (mean + SEM) (10 μM test compound) [%] | Compound
1 ± 3 | 4 ± 3 | 8 ± 3 | 28 ± 3 |  |  |  |  | Cc1sc(N)c(C(=O)c2ccc3ccccc3c2)c1C [Example 33, (2-Amino-4,5-dimethylthiophen-3-yl)-naphthalen-2-yl-methanone]
10 ± 2 | -2 ± 6 | 3 ± 6 | 10 ± 7 |  |  |  |  | Nc1sc2c(c1C(=O)c1ccco1)CCCC2 [Example 4, (2-Amino-4,5,6,7-tetrahydrobenzo[b]thiophen-3-yl)-furan-2-yl-methanone]
-6 ± 5 | 7 ± 4 | -16 ± 5 | -7 ± 6 |  |  |  |  | Cc1sc(N)c(C(=O)c2cc3ccccc3o2)c1C [Example 18, (2-Amino-4,5-dimethylthiophen-3-yl)-benzofuran-2-yl-methanone]
0.6 ± 2 | 3 ± 3 | -6 ± 5 | 45 ± 2 |  |  |  |  | Cc1sc(N)c(C(=O)c2cccc3ccccc23)c1C [Example 8, (2-Amino-4,5-dimethylthiophen-3-yl)-naphthalen-1-yl-methanone]
11 ± 4 | 15 ± 4 | 22 ± 3 | 52 ± 3 |  |  |  |  | Nc1sc2c(c1C(=O)c1cccc3ccccc13)CCCC2 [Example 6, (2-Amino-4,5,6,7-tetrahydrobenzo[b]thiophen-3-yl)-naphthalen-1-yl-methanone]
2 ± 4 | 8 ± 5 | 11 ± 5 | -8 ± 3 |  |  |  |  | Nc1sc2c(c1C(=O)c1ccccn1)CCCC2 [Example 19, (2-Amino-4,5,6,7-tetrahydrobenzo[b]thiophen-3-yl)-pyridin-2-yl-methanone]
11 ± 4 | 12 ± 3 | 18 ± 3 | 60 ± 4 |  |  |  |  | Nc1sc2c(c1C(=O)c1ccc3ccccc3c1)CCN(Cc1ccccc1)C2 [Example 32, (2-Amino-6-benzyl-4,5,6,7-tetrahydrothieno[2,3-c]pyridin-3-yl)-naphthalen-2-yl-methanone]
21 ± 3 | 7 ± 4 | 25 ± 4 | -19 ± 2 |  |  |  |  | Nc1sc2c(c1C(=O)c1cccc3ccccc13)CCN(Cc1ccccc1)C2 [Example 9, (2-Amino-6-benzyl-4,5,6,7-tetrahydrothieno[2,3-c]pyridin-3-yl)-naphthalen-1-yl-methanone]
 |  |  |  | −1 ± 2 | −7 ± 2 | −13 ± 1 | −50 ± 1 | Cc1sc(N)c(C(=O)c2cccc(C(F)(F)F)c2)c1C [PD 81,723, reference compound]
6 ± 3 | 8 ± 3 | 22 ± 4 | 75 ± 1 |  |  |  |  | Nc1sc2c(c1C(=O)c1ccc(I)c3ccccc13)CCC2 [Example 24, (2-Amino-1,6-dihydro-4H-cyclopenta[b]thiophen-3-yl)-(4-iodonaphthalen-1-yl)-methanone]
-9 ± 4 | 6 ± 3 | 15 ± 2 | 35 ± 2 |  |  |  |  | Nc1sc2c(c1C(=O)c1ccccc1)CCSC2 [Example 1, (2-Amino-4,7-dihydro-5H-thieno[2,3-c]thiopyran-3-yl)-phenyl-methanone]
0.6 ± 3 | 6 ± 1 | 29 ± 4 | 60 ± 1 |  |  |  |  | Nc1sc2c(c1C(=O)c1cccc3ccccc13)CCC2 [Example 7, (2-Amino-5,6-dihydro-4H-cyclopenta[b]thiophen-3-yl)-naphthalen-1-yl-methanone]
